From article PMC7473772 (eLife, 2020)
Numbering of substitutions follows the chain as printed. Several values for one entry are separate records, joined by “and”; a condition that tells them apart may be missing. Equal entries are not always repeated.

Tests used:
[1] = tested on: tbaqp1-2-3 null cells expressing TbAQP2 WT or Trp/Met mutants; type: cell-based, Trypanosoma brucei brucei; conditions: triple KO AQP1-3
[2] = target: T1, tbaqp1-2-3 null cells expressing TbAQP2 WT or Trp/Met mutants (Trypanosoma brucei brucei, UniProt Q6ZXT3, L118M); type: cell-based; conditions: AQP2 mutant L118M
T1 sequence (Q6ZXT3 1-312 L118M): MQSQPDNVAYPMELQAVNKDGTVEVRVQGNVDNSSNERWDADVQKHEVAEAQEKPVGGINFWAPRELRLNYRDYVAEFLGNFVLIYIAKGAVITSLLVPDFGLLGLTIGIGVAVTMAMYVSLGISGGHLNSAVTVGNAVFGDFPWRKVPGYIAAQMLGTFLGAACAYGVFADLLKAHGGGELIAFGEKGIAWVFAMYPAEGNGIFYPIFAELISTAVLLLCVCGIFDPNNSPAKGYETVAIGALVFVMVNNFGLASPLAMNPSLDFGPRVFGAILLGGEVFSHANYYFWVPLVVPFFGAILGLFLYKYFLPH

[3] = target: T2, tbaqp1-2-3 null cells expressing TbAQP2 WT or Trp/Met mutants (Trypanosoma brucei brucei, UniProt Q6ZXT3, L218M); type: cell-based; conditions: AQP2 mutant L218M
T2 sequence (Q6ZXT3 1-312 L218M): T1 sequence (Q6ZXT3 1-312 L118M) with M118L, L218M

[4] = target: T3, tbaqp1-2-3 null cells expressing TbAQP2 WT or Trp/Met mutants (Trypanosoma brucei brucei, UniProt Q6ZXT3, L218W); type: cell-based; conditions: AQP2 mutant L218W
T3 sequence (Q6ZXT3 1-312 L218W): T1 sequence (Q6ZXT3 1-312 L118M) with M118L, L218W

[5] = target: T4, tbaqp1-2-3 null cells expressing TbAQP2 WT or Trp/Met mutants (Trypanosoma brucei brucei, UniProt Q6ZXT3, L84W); type: cell-based; conditions: AQP2 mutant L84W
T4 sequence (Q6ZXT3 1-312 L84W): T1 sequence (Q6ZXT3 1-312 L118M) with L84W, M118L

[6] = target: T5, tbaqp1-2-3 null cells expressing TbAQP2 WT or Trp/Met mutants (Trypanosoma brucei brucei, UniProt Q6ZXT3, L118W); type: cell-based; conditions: AQP2 mutant L118W
T5 sequence (Q6ZXT3 1-312 L118W): T1 sequence (Q6ZXT3 1-312 L118M) with M118W

[7] = target: tbaqp1-2-3 null cells expressing TbAQP2 WT or Trp/Met mutants (Trypanosoma brucei brucei, UniProt Q6ZXT3); type: cell-based; conditions: + AQP2 WT
[8] = target: T6, tbaqp1-2-3 null cells expressing TbAQP2 WT or Trp/Met mutants (Trypanosoma brucei brucei, UniProt Q6ZXT3, L118W/L84W); type: cell-based; conditions: AQP2 mutant L84W/L118W
T6 sequence (Q6ZXT3 1-312 L84W/L118W): T1 sequence (Q6ZXT3 1-312 L118M) with L84W, M118W

[9] = target: T7, tbaqp1-2-3 null cells expressing TbAQP2 WT or Trp/Met mutants (Trypanosoma brucei brucei, UniProt Q6ZXT3, L84M); type: cell-based; conditions: AQP2 mutant L84M
T7 sequence (Q6ZXT3 1-312 L84M): T1 sequence (Q6ZXT3 1-312 L118M) with L84M, M118L

## OCC(O)CO [Glycerol]
[1]
  Glycerol uptake, percent of + AQP2 WT, single replicates: 18.67% of + AQP2 WT and 17.85% of + AQP2 WT and 11.96% of + AQP2 WT
[1]; exp HK1560
  Glycerol uptake, single replicates: 3439.75 dpm and 3689.75 dpm and 2430 dpm
[1]; n=3
  Glycerol uptake, AVG: 3187 dpm
  Glycerol uptake, percent of + AQP2 WT, AVG: 16.2% of + AQP2 WT
[2]
  Glycerol uptake, percent of + AQP2 WT, single replicates: 62.48% of + AQP2 WT and 49.85% of + AQP2 WT
[2]; exp HK1560
  Glycerol uptake, single replicates: 11510.33 dpm and 10303.00 dpm
[2]; n=2
  Glycerol uptake, percent of + AQP2 WT, AVG: 56.2% of + AQP2 WT
[3]
  Glycerol uptake, percent of + AQP2 WT, single replicates: 85.78% of + AQP2 WT and 59.96% of + AQP2 WT and 82.90% of + AQP2 WT
[3]; exp HK1560
  Glycerol uptake, single replicates: 15802.25 dpm and 12393.00 dpm and 16849.00 dpm
[3]; n=3
  Glycerol uptake, AVG: 15015 dpm
  Glycerol uptake, percent of + AQP2 WT, AVG: 76.2% of + AQP2 WT
[4]
  Glycerol uptake, percent of + AQP2 WT, single replicates: 75.79% of + AQP2 WT and 58.22% of + AQP2 WT and 78.07% of + AQP2 WT
[4]; exp HK1560
  Glycerol uptake, single replicates: 13962.75 dpm and 12032 dpm and 15866.50 dpm
[4]; n=3
  Glycerol uptake, AVG: 13954 dpm
  Glycerol uptake, percent of + AQP2 WT, AVG: 70.7% of + AQP2 WT
[5]
  Glycerol uptake, percent of + AQP2 WT, single replicates: 55.50% of + AQP2 WT and 63.99% of + AQP2 WT and 46.33% of + AQP2 WT
[5]; exp HK1560
  Glycerol uptake, single replicates: 10224.8 dpm and 13226.00 dpm and 9416.00 dpm
[5]; n=3
  Glycerol uptake, AVG: 10956 dpm
  Glycerol uptake, percent of + AQP2 WT, AVG: 55.3% of + AQP2 WT
[6]
  Glycerol uptake, percent of + AQP2 WT, single replicates: 36.39% of + AQP2 WT and 32.80% of + AQP2 WT and 32.53% of + AQP2 WT
[6]; exp HK1560
  Glycerol uptake, single replicates: 6704.25 dpm and 6779.50 dpm and 6612.25 dpm
[6]; n=3
  Glycerol uptake, AVG: 6699 dpm
  Glycerol uptake, percent of + AQP2 WT, AVG: 33.9% of + AQP2 WT
[7]
  Glycerol uptake, percent of + AQP2 WT, single replicates: 100.00% of + AQP2 WT
[7]; n=3
  Glycerol uptake, percent of + AQP2 WT, AVG: 100.0% of + AQP2 WT
[8]
  Glycerol uptake, percent of + AQP2 WT, single replicates: 26.06% of + AQP2 WT and 22.48% of + AQP2 WT and 15.25% of + AQP2 WT
[8]; exp HK1560
  Glycerol uptake, single replicates: 4801.50 dpm and 4646.75 dpm and 3099.50 dpm
[8]; n=3
  Glycerol uptake, AVG: 4183 dpm
  Glycerol uptake, percent of + AQP2 WT, AVG: 21.3% of + AQP2 WT
[9]
  Glycerol uptake, percent of + AQP2 WT, single replicates: 71.54% of + AQP2 WT and 78.57% of + AQP2 WT and 85.30% of + AQP2 WT
[9]; exp HK1560
  Glycerol uptake, single replicates: 13178.67 dpm and 16239.50 dpm and 17336.50 dpm
[9]; n=3
  Glycerol uptake, AVG: 15585 dpm
  Glycerol uptake, percent of + AQP2 WT, AVG: 78.5% of + AQP2 WT
